Among the data in patent US20050282743A1, “Molecular interactions in cells” (Arbor Vita Corporation, priority 2001, published 2005) are Classification values, retold here.

Ends that are not written are not given here. Peptide text beside a SMILES is read from it. * marks the point of attachment. Biotin = O=C1N[C@H]2[C@H](CS[C@H]2CCCCC(=O)*)N1

Assay in all cases: G' assay (10 uM PL peptide), results of TABLE 7 and TABLE 12
Format in all cases: binding

For experiment [1], the target named is T1, PDZ protein (GST-PDZ fusion) (Homo sapiens, UniProt O75970).
T1 construct: made in house; host or cells: E. coli (DH5alpha, BL21 or JM109)
In short, it runs like this:
(§1)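 Binding classes derive from A450 nm of bound biotin-tagged PL peptide. A score of 5 needs A450 above 4 in more than two repeats.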

For experiment [2], the system named is PDZ protein (GST-PDZ fusion). In outline:
as §1

Experiment [3] addresses T2, PDZ protein (GST-PDZ fusion) (Homo sapiens, UniProt Q5TCQ9).
T2 construct: made in house; host or cells: E. coli (DH5alpha, BL21 or JM109)
T2 sequence (Q5TCQ9 1-1481): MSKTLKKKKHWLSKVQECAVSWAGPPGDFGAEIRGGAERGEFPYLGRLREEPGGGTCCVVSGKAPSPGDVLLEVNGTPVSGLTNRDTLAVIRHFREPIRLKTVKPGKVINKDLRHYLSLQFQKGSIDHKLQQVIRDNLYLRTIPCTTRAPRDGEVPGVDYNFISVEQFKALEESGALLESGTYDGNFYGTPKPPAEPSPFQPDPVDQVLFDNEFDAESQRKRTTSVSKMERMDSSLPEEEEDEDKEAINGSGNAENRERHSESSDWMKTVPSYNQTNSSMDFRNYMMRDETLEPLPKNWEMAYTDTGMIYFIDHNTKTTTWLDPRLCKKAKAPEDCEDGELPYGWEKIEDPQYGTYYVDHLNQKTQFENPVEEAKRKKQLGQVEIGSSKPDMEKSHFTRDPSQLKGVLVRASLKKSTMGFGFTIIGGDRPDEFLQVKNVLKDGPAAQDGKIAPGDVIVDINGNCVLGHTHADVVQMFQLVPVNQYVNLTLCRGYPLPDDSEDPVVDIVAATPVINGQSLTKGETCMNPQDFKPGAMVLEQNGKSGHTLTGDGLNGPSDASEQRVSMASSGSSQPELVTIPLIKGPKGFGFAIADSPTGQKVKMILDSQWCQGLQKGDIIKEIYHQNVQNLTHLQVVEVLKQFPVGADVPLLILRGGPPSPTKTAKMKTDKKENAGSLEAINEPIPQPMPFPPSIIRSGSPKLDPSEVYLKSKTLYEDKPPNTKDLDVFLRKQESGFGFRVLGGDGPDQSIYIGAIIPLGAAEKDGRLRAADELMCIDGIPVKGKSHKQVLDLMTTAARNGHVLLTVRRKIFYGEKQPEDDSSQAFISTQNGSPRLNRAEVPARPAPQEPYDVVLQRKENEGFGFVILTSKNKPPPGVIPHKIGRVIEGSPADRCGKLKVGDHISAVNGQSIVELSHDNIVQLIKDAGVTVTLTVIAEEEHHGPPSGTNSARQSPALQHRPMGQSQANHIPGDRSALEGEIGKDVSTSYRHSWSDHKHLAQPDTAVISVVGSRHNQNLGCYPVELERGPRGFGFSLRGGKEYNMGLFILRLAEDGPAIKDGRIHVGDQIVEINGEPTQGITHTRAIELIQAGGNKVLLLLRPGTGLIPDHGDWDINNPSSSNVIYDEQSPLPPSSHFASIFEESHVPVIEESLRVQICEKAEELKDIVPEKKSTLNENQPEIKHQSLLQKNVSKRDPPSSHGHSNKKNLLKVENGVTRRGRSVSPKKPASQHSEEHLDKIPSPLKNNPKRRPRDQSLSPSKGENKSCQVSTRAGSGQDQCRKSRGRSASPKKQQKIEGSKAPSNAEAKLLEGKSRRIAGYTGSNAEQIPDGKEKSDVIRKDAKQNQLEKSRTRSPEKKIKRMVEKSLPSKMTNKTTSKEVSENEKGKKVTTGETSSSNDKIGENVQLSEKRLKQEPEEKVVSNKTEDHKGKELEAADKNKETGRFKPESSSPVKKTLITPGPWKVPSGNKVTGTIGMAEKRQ
In short, it runs like this:
as §1

T1 sequence (O75970 whole entry, the tested form may be a part): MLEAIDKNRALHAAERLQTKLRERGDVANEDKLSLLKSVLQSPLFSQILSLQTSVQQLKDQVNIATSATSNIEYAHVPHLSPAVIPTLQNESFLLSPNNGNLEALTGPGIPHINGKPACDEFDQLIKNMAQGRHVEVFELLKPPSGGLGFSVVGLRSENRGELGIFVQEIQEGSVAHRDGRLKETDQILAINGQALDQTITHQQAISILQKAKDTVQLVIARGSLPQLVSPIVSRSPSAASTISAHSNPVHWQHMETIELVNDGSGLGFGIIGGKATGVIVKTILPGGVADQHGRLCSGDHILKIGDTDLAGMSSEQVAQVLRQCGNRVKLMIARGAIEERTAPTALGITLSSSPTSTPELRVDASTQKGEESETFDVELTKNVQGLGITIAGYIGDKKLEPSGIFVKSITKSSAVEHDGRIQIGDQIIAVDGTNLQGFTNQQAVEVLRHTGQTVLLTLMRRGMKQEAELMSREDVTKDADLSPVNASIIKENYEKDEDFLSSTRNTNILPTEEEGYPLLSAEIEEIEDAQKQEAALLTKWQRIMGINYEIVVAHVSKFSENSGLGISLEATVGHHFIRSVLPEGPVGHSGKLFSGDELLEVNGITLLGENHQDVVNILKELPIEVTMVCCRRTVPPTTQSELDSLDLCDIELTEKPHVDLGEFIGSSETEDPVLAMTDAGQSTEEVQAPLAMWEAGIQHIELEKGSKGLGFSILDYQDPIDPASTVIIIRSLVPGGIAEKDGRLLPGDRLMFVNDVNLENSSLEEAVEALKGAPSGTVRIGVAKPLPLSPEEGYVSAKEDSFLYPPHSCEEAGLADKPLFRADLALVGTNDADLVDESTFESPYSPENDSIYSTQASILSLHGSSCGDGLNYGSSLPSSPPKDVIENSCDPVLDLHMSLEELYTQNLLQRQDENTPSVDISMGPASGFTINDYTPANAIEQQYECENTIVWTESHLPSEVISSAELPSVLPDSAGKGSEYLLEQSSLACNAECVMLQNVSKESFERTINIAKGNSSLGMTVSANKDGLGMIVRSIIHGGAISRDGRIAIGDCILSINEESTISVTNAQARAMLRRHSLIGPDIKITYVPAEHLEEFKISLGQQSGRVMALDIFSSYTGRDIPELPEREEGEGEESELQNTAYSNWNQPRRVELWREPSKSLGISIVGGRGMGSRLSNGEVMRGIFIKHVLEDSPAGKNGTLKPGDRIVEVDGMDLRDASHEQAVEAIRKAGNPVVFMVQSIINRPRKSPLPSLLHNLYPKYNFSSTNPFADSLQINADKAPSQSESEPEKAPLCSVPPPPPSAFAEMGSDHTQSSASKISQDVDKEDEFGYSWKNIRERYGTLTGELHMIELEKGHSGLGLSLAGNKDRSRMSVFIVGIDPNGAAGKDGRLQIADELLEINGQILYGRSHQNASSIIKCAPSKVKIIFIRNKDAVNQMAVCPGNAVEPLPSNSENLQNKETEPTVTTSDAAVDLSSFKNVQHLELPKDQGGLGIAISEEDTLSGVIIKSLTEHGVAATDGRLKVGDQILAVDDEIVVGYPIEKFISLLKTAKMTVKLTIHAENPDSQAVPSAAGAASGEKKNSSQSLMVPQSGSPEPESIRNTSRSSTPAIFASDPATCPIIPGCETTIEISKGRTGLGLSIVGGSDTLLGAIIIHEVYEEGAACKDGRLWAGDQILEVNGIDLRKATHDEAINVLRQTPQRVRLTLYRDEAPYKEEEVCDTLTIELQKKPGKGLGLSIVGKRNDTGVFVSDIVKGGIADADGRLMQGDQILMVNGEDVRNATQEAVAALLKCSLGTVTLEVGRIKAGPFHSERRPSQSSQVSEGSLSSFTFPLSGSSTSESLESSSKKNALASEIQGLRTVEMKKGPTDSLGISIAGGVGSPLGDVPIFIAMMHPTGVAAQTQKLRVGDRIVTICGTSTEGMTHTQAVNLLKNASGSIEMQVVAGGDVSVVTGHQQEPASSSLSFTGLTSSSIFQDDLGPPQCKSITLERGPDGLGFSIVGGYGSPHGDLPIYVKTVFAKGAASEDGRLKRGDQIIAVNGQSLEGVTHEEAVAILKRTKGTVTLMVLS

For the compound “ARHRVTSYTSSSVNVSSNL (Biotin-ARHRVTSYTSSSVNVSSNL) [IL-8RB]”, the Classification in experiment [1] (PDZ MUPP-1, PDZ Domain 13) is listed as 1 (A450 nm 0-1); in experiment [2] (PDZ BAI-1, PDZ Domain 2), 1 (A450 nm 0-1); in experiment [2] (PDZ BAI-1, PDZ Domain 6) it was 1 (A450 nm 0-1); in experiment [2] (PDZ Novel PDZ, PDZ Domain 2) it was 1 (A450 nm 0-1); in experiment [3] (PDZ KIAA1634, PDZ Domain 1), 1 (A450 nm 0-1); in experiment [3] (PDZ KIAA1634, PDZ Domain 5) it was 1 (A450 nm 0-1).
On to `CC[C@H](C)[C@H](NC(=O)[C@H](CCC(=O)O)NC(=O)[C@H](CO)NC(=O)[C@H](CCC(=O)O)NC(=O)[C@H](CCCNC(=N)N)NC(=O)[C@H](CCCNC(=N)N)NC(=O)[C@H](CC(C)C)NC(=O)[C@@H]1CCCN1C(=O)[C@H](CCCNC(=N)N)NC(=O)[C@@H]1CCCN1C(=O)[C@H](CCC(=O)O)NC(=O)[C@H](CC(C)C)NC(=O)[C@@H]1CCCN1C(=O)[C@@H](NC(=O)[C@H](CO)NC(=O)[C@H](C)NC(=O)[C@H](CCC(N)=O)NC(=O)[C@H](CC(N)=O)NC(=O)[C@H](Cc1c[nH]cn1)NC(=O)[C@H](CC(C)C)NC(=O)CCCC[C@@H]1SC[C@@H]2NC(=O)N[C@@H]21)C(C)C)C(=O)O` [Kir2.1 (inwardly rect. K+ channel)] (Biotin-LHNQASVPLEPRPLRRESEI-OH; C-terminus assumed), for which, in experiment [3] (PDZ KIAA1634, PDZ Domain 1), the Classification is 1 (A450 nm 0-1).
With `CC[C@H](C)[C@H](NC(=O)[C@H](C)NC(=O)[C@H](CC(C)C)NC(=O)[C@H](Cc1c[nH]c2ccccc12)NC(=O)[C@H](Cc1c[nH]cn1)NC(=O)[C@H](CCC(N)=O)NC(=O)[C@H](CC(C)C)NC(=O)[C@H](CCC(N)=O)NC(=O)[C@H](Cc1ccccc1)NC(=O)[C@H](CCC(N)=O)NC(=O)[C@H](CCCNC(=N)N)NC(=O)[C@@H](NC(=O)[C@H](CC(=O)O)NC(=O)[C@H](CCCNC(=N)N)NC(=O)[C@H](CCC(N)=O)NC(=O)[C@H](C)NC(=O)[C@@H](NC(=O)[C@H](CC(C)C)NC(=O)[C@H](Cc1c[nH]cn1)NC(=O)[C@H](Cc1c[nH]cn1)NC(=O)CCCC[C@@H]1SC[C@@H]2NC(=O)N[C@@H]21)C(C)C)[C@@H](C)CC)C(=O)O` [noradrenaline transporter] (Biotin-HHLVAQRDIRQFQLQHWLAI-OH; C-terminus assumed), the Classification in experiment [1] (PDZ MUPP-1, PDZ Domain 3) is recorded as 4 (A450 nm 3-4); in experiment [1] (PDZ MUPP-1, PDZ Domain 7) it was 3 (A450 nm 2-3); in experiment [1] (PDZ MUPP-1, PDZ Domain 9), 3 (A450 nm 2-3).
With “RNIEEVYVGGKQVVPFSSSV (Biotin-RNIEEVYVGGKQVVPFSSSV) [Nedasin (s-form)]”, the Classification in experiment [2] (PDZ BAI-1, PDZ Domain 2) was 1 (A450 nm 0-1); in experiment [2] (PDZ BAI-1, PDZ Domain 6) it was 1 (A450 nm 0-1); in experiment [3] (PDZ KIAA1634, PDZ Domain 1), 1 (A450 nm 0-1).
For `CC[C@H](C)[C@H](NC(=O)[C@H](CO)NC(=O)[C@H](CCC(=O)O)NC(=O)[C@H](Cc1ccc(O)cc1)NC(=O)[C@H](CC(=O)O)NC(=O)[C@H](CC(N)=O)NC(=O)[C@H](CCC(=O)O)NC(=O)[C@H](CCCCN)NC(=O)CCCC[C@@H]1SC[C@@H]2NC(=O)N[C@@H]21)C(=O)N[C@@H](CO)C(=O)N[C@@H](CC(=O)O)C(=O)N[C@@H](CC(C)C)C(=O)N[C@@H](CCC(N)=O)C(=O)N[C@@H](CCC(N)=O)C(=O)NCC(=O)N[C@@H](CCCNC(=N)N)C(=O)N[C@@H](CC(=O)O)C(=O)N[C@H](C(=O)N[C@H](C(=O)N[C@@H](CCCNC(=N)N)C(=O)N[C@@H](CC(C)C)C(=O)O)[C@@H](C)O)[C@@H](C)CC` [PAG] (Biotin-KENDYESISDLQQGRDITRL-OH; C-terminus assumed), the Classification is given as 3 (A450 nm 2-3) in experiment [2] (PDZ FLJ 00011, PDZ Domain 1) and 4 (A450 nm 3-4) in experiment [2] (PDZ SHANK, PDZ Domain 1).
As to “LNETTETQRTLLNGDLQTSI (Biotin-LNETTETQRTLLNGDLQTSI) [SSTR2 (somatostatin recepor 2)]”, in experiment [2] (PDZ SHANK, PDZ Domain 1), the Classification is listed as 1 (A450 nm 0-1).
On to “QATSRNGHSARQHVVADTEL (Biotin-QATSRNGHSARQHVVADTEL) [CD34]”, for which the Classification is given as 1 (A450 nm 0-1) in experiment [2] (PDZ BAI-1, PDZ Domain 6); 1 (A450 nm 0-1) in experiment [2] (PDZ SHANK, PDZ Domain 1); 1 (A450 nm 0-1) in experiment [3] (PDZ KIAA1634, PDZ Domain 5).
Regarding “LASKSAEEGKQIPDSLSTDL (Biotin-LASKSAEEGKQIPDSLSTDL) [Dock2]”, the Classification in experiment [2] (PDZ BAI-1, PDZ Domain 6) is given as 1 (A450 nm 0-1); in experiment [2] (PDZ HEMBA 1003117, PDZ Domain 1), 1 (A450 nm 0-1); in experiment [2] (PDZ SHANK, PDZ Domain 1) it was 1 (A450 nm 0-1); in experiment [3] (PDZ KIAA1634, PDZ Domain 5), 1 (A450 nm 0-1).
“KTMPAATYRLLTGQEQPVYL (Biotin-KTMPAATYRLLTGQEQPVYL) [MINT-3]”: the Classification in experiment [1] (PDZ MUPP-1, PDZ Domain 3) is reported as 1 (A450 nm 0-1); in experiment [1] (PDZ MUPP-1, PDZ Domain 11), 2 (A450 nm 1-2); in experiment [2] (PDZ LIM Protein, PDZ Domain 1), 1 (A450 nm 0-1).
As to “PPATPSPRLALPAHHNATRL (Biotin-PPATPSPRLALPAHHNATRL) [Na+/Pi cotransporter 2]”, the Classification in experiment [1] (PDZ MUPP-1, PDZ Domain 10) is 1 (A450 nm 0-1); in experiment [1] (PDZ MUPP-1, PDZ Domain 13), 1 (A450 nm 0-1); in experiment [2] (PDZ SHANK, PDZ Domain 1), 5 (A450 nm of 4 more than 2× repeated).
With “ALVLIAFCIIRRRPSAYQAL (Biotin-ALVLIAFCIIRRRPSAYQAL) [CD68]”, the Classification is on record as 3 (A450 nm 2-3) in experiment [2] (PDZ BAI-1, PDZ Domain 2); 1 (A450 nm 0-1) in experiment [2] (PDZ SHANK, PDZ Domain 1); 2 (A450 nm 1-2) in experiment [3] (PDZ KIAA1634, PDZ Domain 1).
Regarding “GGGGGSGGGGGSGIESVKI [GLUR2 (glutamate receptor 2-modified)]”, the Classification in experiment [3] (PDZ KIAA1634, PDZ Domain 1) is 4 (A450 nm 3-4).
Take `CC[C@H](C)[C@H](NC(=O)CNC(=O)[C@H](CO)NC(=O)[C@H](Cc1ccccc1)NC(=O)[C@@H](NC(=O)[C@H](CS)NC(=O)CNC(=O)CNC(=O)[C@H](C)NC(=O)[C@@H]1CCCN1C(=O)[C@@H](NC(=O)[C@@H]1CCCN1C(=O)CCCC[C@@H]1SC[C@@H]2NC(=O)N[C@@H]21)[C@@H](C)CC)[C@@H](C)O)C(=O)N[C@@H](Cc1ccccc1)C(=O)N1CCC[C@H]1C(=O)N[C@H](C(=O)N[C@@H](CC(C)C)C(=O)N[C@H](C(=O)N[C@@H](CO)C(=O)N1CCC[C@H]1C(=O)N[C@@H](CC(C)C)C(=O)O)[C@@H](C)O)[C@@H](C)O` [KIA 1481] (Biotin-PIPAGGCTFSGIFPTLTSPL-OH; C-terminus assumed): the Classification in experiment [2] (PDZ BAI-1, PDZ Domain 2) is 2 (A450 nm 1-2); in experiment [2] (PDZ BAI-1, PDZ Domain 4), 1 (A450 nm 0-1); in experiment [2] (PDZ BAI-1, PDZ Domain 5) it was 3 (A450 nm 2-3); in experiment [2] (PDZ BAI-1, PDZ Domain 6), 2 (A450 nm 1-2); in experiment [2] (PDZ FLJ00011 (also printed FLJ 00011), PDZ Domain 1), 2 (A450 nm 1-2); in experiment [2] (PDZ Novel PDZ, PDZ Domain 1), 1 (A450 nm 0-1). Besides, the Classification is reported as 1 (A450 nm 0-1) in experiment [2] (PDZ Novel PDZ, PDZ Domain 2); 5 (A450 nm of 4 more than 2× repeated) in experiment [2] (PDZ SHANK, PDZ Domain 1); 2 (A450 nm 1-2) in experiment [3] (PDZ KIAA1634, PDZ Domain 1); 1 (A450 nm 0-1) in experiment [3] (PDZ KIAA1634, PDZ Domain 2); 1 (A450 nm 0-1) in experiment [3] (PDZ KIAA1634, PDZ Domain 5).
With CKR5_HUMAN (ERASSVYTRSTGEQEISVGL), the Classification in experiment [3] (PDZ KIAA1634, PDZ Domain 1) was 1 (A450 nm 0-1).
